Assay results: patent publication US20250250227A1, “AMINO LIPID COMPOUND, PREPARATION METHOD THEREFOR, COMPOSITION THEREOF AND USE THEREOF” (SHENZHEN SHENXIN BIOTECHNOLOGY CO., LTD., priority 2022, published 2025)

Key:
Female BALB/c mice [1] = test: Performance evaluation of delivery to lymph nodes of Fluc mRNA lipid nanoparticle (IVIS); type: in vivo; details: Fluc mRNA LNP
Experimental: (§1) Animal preparation: Female BALB/c mice of 6-8 weeks old were selected and raised in an SPF grade breeding room. Animal testing was conducted in strict accordance with the guidelines of national health institutions and animal ethics requirements.
In vivo Delivery: prior to injection of the test LNP formulations, the LNP formulations were gently and repeatedly inverted to thoroughly mix the formulation samples. A corresponding amount of the formulation samples were aspirated with a 1 ml insulin syringe, and the LNP formulations were injected by tail vein injection (IV), with 3 mice per formulation. Each mouse was injected with 75 μL the luciferase mRNA (Fluc mRNA)-encapsulating lipid nanoparticle formulation prepared in Experimental Example 1.
6 hours after injection of LNP formulations, mice were injected with 200 μL D-Luciferin luciferase developing substrate (Catalog No. 122799; Manufacturer: Perkin Elmer). After the substrate was injected, the mice were anesthetized with isoflurane inhalation, and the injection time of luciferase developing substrate was recorded.
The intensity of fluorescence expression induced by the lipid nanoparticle encapsulating luciferase mRNA (Fluc mRNA) with a representative amino lipid compound is shown in Table 6, with SM-102 as a control.

Female BALB/c mice [2] = test: IFN-γ Elispot cellular immunity test, spleen lymphocytes of mice immunized with IN002.5.1 mRNA LNP; type: in vivo; details: 50 μL IM, spleen on 7th day after immunization, FIG. 2-4
Experimental: An IN002.5.1 mRNA-encapsulating lipid nanoparticle formulation was prepared according to the method as described in Experimental Example 1, with replacing the luciferase mRNA (Fluc mRNA) with IN002.5.1 mRNA, with a concentration of IN002.5.1 mRNA of 0.2 g/L, a mass ratio of IN002.5.1 mRNA to Lipid of 1:10, a particle size of 80-130 nm, and an encapsulation efficiency of 90% or higher.
The sequence of IN002.5.1 mRNA is one obtained by replacing all uracil (u) in SEQ ID NO. 1 with N1-methylpseudouridine. Of note is that the t (thymine) in the RNA sequence, SEQ ID NO. 1, in the Sequence Listing is actually u (uracil), according to the WIPO Standard ST. 26 for nucleotide or amino acid sequence listing.
as §1
Immunization of mice: Prior to injection of the test LNP formulations, the LNP formulations were gently and repeatedly inverted to thoroughly mix the formulation samples. A corresponding amount of the formulation samples were aspirated with a 1 ml insulin syringe, and the LNP formulations were injected by intramuscular injection (IM) […], with 8 mice per formulation. Each mouse was injected with 50 μL of the IN002.5.1 mRNA encapsulating lipid nanoparticle formulation.
Spleen acquisition: On the 7th day after immunization, 3 to 4 mice from each LNP immunization group were selected and euthanized, and their spleens were acquired in a super clean bench.
Isolation of lymphocytes: The spleens of mice were taken out in a super clean bench. 7 mL of mouse lymphocyte separation solution was added to a 6-well cell culture plate. Mouse spleen cells were ground with a syringe piston, and the suspension of the spleen cells was filtered through a cell screen and immediately transferred to a 15 mL centrifuge tube. […] RPMI 1640 medium was slowly added with keeping the liquid interface distinct. After centrifugation at 800 g with a horizontal rotor at room temperature for 30 minutes, a clear stratification can be visible. The lymphocyte layer was aspirated, then added with 10 mL RPMI 1640 medium, and inverted for washing. The cells were collected by centrifugation at 250 g for 10 min at room temperature, and the red blood cells were lysed. After completing lysis of red blood cells, the supernatant was poured, and the cells were resuspended in culture medium and counted.
Addition of stimulant and culture of lymphocyte: RPMI-1640 medium containing 10% fetal bovine serum was used to activate the pre-coated plate. After standing at room temperature for at least 30 min, the medium was removed, and a cell suspension at adjusted concentration was added ([…]). The medium used to resuspend the cells was used as a background negative control. 10 μL positive stimulant working solution (PMA+Ionomycin (dissolved in DPBS) was added to a positive control well; […] medium used to resuspend the cells was added to a negative control well; 10 µL/well of a peptide library diluted with RPMI 1640 was added to experimental wells. After all samples and the stimulant were added, the plate was covered, incubated in an incubator with 5% CO2 at 37° C. for 16-24 h.
Elispot detection after culture: The cells and the culture medium in the wells were dumped, and the wells were lysed with 200 μL/well of ice-cold deionized water at 4° C. for 10 min. The liquid in the wells were shaken out, and the wells were washed five times with PBS buffer. The wells were incubated with 100 μL/well of 1 μg/ml detection antibody for 2 h at room temperature; and after washing the plate 5 times with PBS, the wells were incubated with 100 μL/well of 1000-fold diluted enzyme labeled avidin (Streptavidin-HRP) for 1 h at room temperature. […]

Female BALB/c mice [3] = test: In vivo safety of hEPO mRNA lipid nanoparticle: serum alanine aminotransferase (ALT) enzyme activity; details: hEPO mRNA LNP, 300 μL IV, serum 12 h after injection; FIG. 1
Experimental: A human erythropoietin mRNA (hEPO mRNA)-encapsulating lipid nanoparticle formulation was prepared according to the method as described in Experimental Example 1, with replacing the luciferase mRNA (Fluc mRNA) with human erythropoietin mRNA (hEPO mRNA), with a concentration of hEPO mRNA of 0.2 g/L, a mass ratio of hEPO mRNA to Lipid of 1:10, a particle size of 90-130 nm, and an encapsulation efficiency of above 90% or higher.
as §1
In vivo Delivery: Prior to injection of the test LNP formulations, the LNP formulations were gently and repeatedly inverted to thoroughly mix the formulation samples. A corresponding amount of the formulation samples were aspirated with a 1 ml insulin syringe, and the LNP formulations were injected by tail vein injection (IV), with 5 mice per formulation. Each mouse was injected with 300 μL of the human erythropoietin mRNA (hEPO mRNA)-encapsulating lipid nanoparticle formulation.
Serum acquisition: Blood samples of mice were collected 12 h after injection, placed in tubes without anticoagulants, and naturally coagulated at room temperature for 30-60 min, and then centrifuged at a speed of 3500 rpm for 10 min to obtain the supernatant, which was the serum.
The detection of alanine transaminase was carried out according to instructions of the kit (Nanjing Jiancheng Bioengineering Institute, Catalog. No. C009-2-1), and a standard curve was made using the standard provided in the kit. D-PBS was used in the experiment, which was purchased from Sangon Biotech (Shanghai) Co., Ltd., Catalog No. E607009-0600.
The method of detection of enzyme activity of alanine aminotransferase (ALT) in serum of the mice is as follows:
• (1) Enzymatic reaction: 0, 2, 4, 6, 8 and 10 μL of […] sodium pyruvate standard solution were sequentially added to 5 μL of 0.1 mol/L phosphate buffer, and the volume was supplemented to 25 μL with a matrix solution, and repeatedly aspirating and spitting with a pipette for mixing well; • (2) Addition reaction: 20 μL 2,4-dinitrophenylhydrazine solution was added to all reaction wells in (1), mixed by aspirating and spitting, and then placed in an incubator at 37° C. to react for 20 min; • (3) Developing: 200 μL of 0.4 mol/L NaOH solution was added to all reaction wells in (2) to stop the reaction, mixed by aspirating and spitting, and incubated at room temperature for 15 min. The OD value of each well was measured at 510 nm in a microplate reader; and • (4) Data processing of standard curve: The corresponding absolute OD value for each well was obtained by subtracting the OD value for 0 μL well from the measured OD value for each well, the corresponding ALT Karmen units being 0, 28, 57, 97, 150 and 200 U/L, respectively. The standard curve was obtain by taking the absolute OD value as the abscissa and the corresponding Karmen unit as the ordinate.
• (1) Reagent preparation: an ALT matrix solution was placed in an incubator at 37° C. for preheating; • (2) Enzymatic reaction: 5 μL diluted serum was aspirated and added to a 96-well plate, then 20 μL matrix solution was added to the corresponding sample well and mixed by repeatedly aspirating and spitting to avoid bubbling, and then placed in an incubator at 37° C. for 30 min; • (3) Addition reaction: 20 μL 2,4-dinitrophenylhydrazine was added to all reaction wells in (2), mixed by aspirating and spitting, and then reacted in an incubator at 37° C. for 20 min; • (4) Developing: 200 μL of 0.4 mol/L NaOH solution was added to all reaction wells in (3) to stop the reaction, mixed by aspirating and spitting, and then incubated at room temperature for 15 min. […]

Female BALB/c mice [4] = test: Humoral immunity test for total binding IgG antibody (ELISA, SARS-COV-2 antigen protein) in serum of immunized mice; type: in vivo; details: IN002.5.1 mRNA LNP, 50 μL IM, serum on 14th day after immunization; FIG. 5-6
[5] = Preparation and characterisation of mRNA-encapsulating lipid nanoparticle (encapsulation efficiency, particle size); type: physicochemical; details: LNP encapsulating Fluc mRNA; Lipid:DSPC:CHO-HP:M-DMG-2000 48:10:40.5:1.5
Method in brief: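 Fluc mRNA in sodium acetate buffer mixed with ethanolic amino lipid:DSPC:CHO-HP:M-DMG-2000 (48:10:40.5:1.5 molar) by microfluidics, mRNA:lipid mass ratio 1:10, then dialysed 2 h against Tris-8% sucrose and 0.22 μm filtered. Final mRNA 0.2 g/L; particle size and encapsulation efficiency measured.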

Female BALB/c mice [6] = test: Performance evaluation of in vivo delivery of Fluc mRNA lipid nanoparticle (IVIS, body and organs); details: Fluc mRNA LNP; for Liver (fluorescence expression intensity) / Spleen (fluorescence expression intensity): 75 μL IV; for Liver (fluorescence expression intensity) / Spleen (fluorescence expression intensity) / Total flux (fluorescence expression intensity) / (Spleen/Total Flux) * 100%: 6 hours after injection; for Liver (fluorescence expression intensity) / Spleen (fluorescence expression intensity) / Total flux (fluorescence expression intensity): IVIS; for Total flux (fluorescence expression intensity): 75 μL tail vein injection (IV); for (Spleen/Total Flux) * 100% / Multiple of spleen delivery/total delivery to amino lipid compound 118: IV; for Multiple of spleen delivery/total delivery to amino lipid compound 118: relative to amino lipid compound 118
Method in brief: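 Female BALB/c mice, 6-8 weeks, received 75 μL Fluc mRNA-LNP by tail-vein injection, 3 mice per formulation. At 6 h, 200 μL D-luciferin was injected, mice were anesthetized with isoflurane, and IVIS bioluminescence was imaged in body and organs.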

CCCCCCC(CCCCCC)OC(=O)CCCCCCCCC(CCCCCCCCC(=O)OC(CCCCCC)CCCCCC)OC(=O)N(CCCCCC(=O)OCC)CCCN(C)C [Compound 250]
Expression intensity (lymph nodes) (Female BALB/c mice [1]; 75 μL IV, 6 hours after injection, IVIS, lymph nodes): 1.77E+06
Delivery effect on lymph nodes compared to SM102 (Female BALB/c mice [1]; IV, statement on Table 6): better delivery effect on lymph nodes

CCCCCCC(CCCCCC)OC(=O)CCCCCCCCC(CCCCCCCCC(=O)OC(CCCCCC)CCCCCC)OC(=O)N(CCCN(C)C)CCC(=O)OCCC [Compound 263]
Cellular immunity effect (IFN-γ Elispot) compared to ALC0315 (Female BALB/c mice [2]): better cellular immunity effect
ALT enzyme activity (Karmen unit) compared to ALC0315 and SM-102 (Female BALB/c mice [3]): significantly lower ALT enzyme activity
Humoral immunity effect (IgG titer) compared to ALC0315 (Female BALB/c mice [4]): better humoral immunity effect

CCCCCCC(CCCCCC)OC(=O)CCCCCCCCC(CCCCCCCCC(=O)OC(CCCCCC)CCCCCC)OC(=O)N(CCCN(C)C)CCC(=O)OCCCCC [Compound 265]
Cellular immunity effect (IFN-γ Elispot) compared to ALC0315 (Female BALB/c mice [2]): better cellular immunity effect
Encapsulation efficiency [5]: 94.59%
Liver (fluorescence expression intensity) (Female BALB/c mice [6]): 7.57E+07
Spleen (fluorescence expression intensity) (Female BALB/c mice [6]): 1.91E+06
Total flux (fluorescence expression intensity) (Female BALB/c mice [6]): 3.93E+08
(Spleen/Total Flux) * 100% (Female BALB/c mice [6]): 0.49%
Multiple of spleen delivery/total delivery to amino lipid compound 118 (Female BALB/c mice [6]): 1.43
Humoral immunity effect (IgG titer) compared to ALC0315 (Female BALB/c mice [4]): better humoral immunity effect

CCCCCCOC(=O)CCN(CCCN(C)C)C(=O)OC(CCCCCCCCC(=O)OC(CCCCCC)CCCCCC)CCCCCCCCC(=O)OC(CCCCCC)CCCCCC [Compound 266]
Encapsulation efficiency [5]: 94.26%
ALT enzyme activity (Karmen unit) compared to ALC0315 and SM-102 (Female BALB/c mice [3]): significantly lower ALT enzyme activity
Liver (fluorescence expression intensity) (Female BALB/c mice [6]): 8.09E+07
Spleen (fluorescence expression intensity) (Female BALB/c mice [6]): 1.60E+06
Total flux (fluorescence expression intensity) (Female BALB/c mice [6]): 2.67E+08
(Spleen/Total Flux) * 100% (Female BALB/c mice [6]): 0.60%
Multiple of spleen delivery/total delivery to amino lipid compound 118 (Female BALB/c mice [6]): 1.76
Humoral immunity effect (IgG titer) compared to ALC0315 (Female BALB/c mice [4]): better humoral immunity effect

CCCCCCC(CCCCCC)OC(=O)CCCCCCCCC(CCCCCCCCC(=O)OC(CCCCCC)CCCCCC)OC(=O)N(CCCN(C)C)CC(=O)OCCCCC [Compound 271]
Cellular immunity effect (IFN-γ Elispot) compared to ALC0315 (Female BALB/c mice [2]): better cellular immunity effect
Encapsulation efficiency [5]: 93.59%
Liver (fluorescence expression intensity) (Female BALB/c mice [6]): 7.57E+07
Spleen (fluorescence expression intensity) (Female BALB/c mice [6]): 4.76E+06
Total flux (fluorescence expression intensity) (Female BALB/c mice [6]): 2.68E+08
(Spleen/Total Flux) * 100% (Female BALB/c mice [6]): 1.78%
Multiple of spleen delivery/total delivery to amino lipid compound 118 (Female BALB/c mice [6]): 5.22
Humoral immunity effect (IgG titer) compared to ALC0315 (Female BALB/c mice [4]): better humoral immunity effect

CCCCCCCCOC(=O)CN(CCCN(C)C)C(=O)OC(CCCCCCCCC(=O)OC(CCCCCC)CCCCCC)CCCCCCCCC(=O)OC(CCCCCC)CCCCCC [Compound 274]
Cellular immunity effect (IFN-γ Elispot) compared to ALC0315 (Female BALB/c mice [2]): better cellular immunity effect
Encapsulation efficiency [5]: 93.06%
Liver (fluorescence expression intensity) (Female BALB/c mice [6]): 7.08E+07
Spleen (fluorescence expression intensity) (Female BALB/c mice [6]): 2.60E+06
Total flux (fluorescence expression intensity) (Female BALB/c mice [6]): 3.25E+08
(Spleen/Total Flux) * 100% (Female BALB/c mice [6]): 0.80%
Multiple of spleen delivery/total delivery to amino lipid compound 118 (Female BALB/c mice [6]): 2.35
Humoral immunity effect (IgG titer) compared to ALC0315 (Female BALB/c mice [4]): better humoral immunity effect
